PubChem BioAssay AID1918991 (Molecular Pharmacology Branch, DTP, NCI, 2023)

Test system: 186277-243-T-J2-PDC complex spheroid growth
Assay: Anticancer human tumor 186277-243-T-J2-PDC patient-derived colon adenocarcinoma cell line growth inhibition [AhR]
Details: for IC50: curve of first compound; for viability, T/C: stronger effect = lower value; active = viability on the fitted dose curve at most 10% of control; inactive = the rest
In short: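 Agents were dosed in half-log steps down from roughly clinical Cmax, or from 10 microM where Cmax was unknown, alone and with AhR antagonists. Read-out: percent test/control growth of tumor spheroids containing HUVEC and MSC stromal cells.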

[1] = second compound 0.1 µM, first compound 0.0316 µM
[2] = second compound 0.1 µM, first compound 0.1 µM
[3] = second compound 0.1 µM, first compound 0.316 µM
[4] = second compound 0.1 µM, first compound 1 µM
[5] = second compound 0.1 µM, first compound 3.16 µM
[6] = second compound 0.1 µM, first compound 10 µM
[7] = second compound 0.316 µM, first compound 0.0316 µM
[8] = second compound 0.316 µM, first compound 0.1 µM
[9] = second compound 0.316 µM, first compound 0.316 µM
[10] = second compound 0.316 µM, first compound 1 µM
[11] = second compound 0.316 µM, first compound 3.16 µM
[12] = second compound 0.316 µM, first compound 10 µM
[13] = second compound 1 µM, first compound 0.0316 µM
[14] = second compound 1 µM, first compound 0.1 µM
[15] = second compound 1 µM, first compound 0.316 µM
[16] = second compound 1 µM, first compound 1 µM
[17] = second compound 1 µM, first compound 3.16 µM
[18] = second compound 1 µM, first compound 10 µM
[19] = second compound 3.16 µM, first compound 0.0316 µM
[20] = second compound 3.16 µM, first compound 0.1 µM
[21] = second compound 3.16 µM, first compound 0.316 µM
[22] = second compound 3.16 µM, first compound 1 µM
[23] = second compound 3.16 µM, first compound 3.16 µM
[24] = second compound 3.16 µM, first compound 10 µM
[25] = second compound 10 µM, first compound 0.0316 µM
[26] = second compound 10 µM, first compound 0.1 µM
[27] = second compound 10 µM, first compound 0.316 µM
[28] = second compound 10 µM, first compound 1 µM
[29] = second compound 10 µM, first compound 3.16 µM
[30] = second compound 10 µM, first compound 10 µM
[31] = second compound 0.1 µM, first compound 0.00949 µM
[32] = second compound 0.1 µM, first compound 0.03 µM
[33] = second compound 0.1 µM, first compound 0.0949 µM
[34] = second compound 0.1 µM, first compound 0.3 µM
[35] = second compound 0.316 µM, first compound 0.00949 µM
[36] = second compound 0.316 µM, first compound 0.03 µM
[37] = second compound 0.316 µM, first compound 0.0949 µM
[38] = second compound 0.316 µM, first compound 0.3 µM
[39] = second compound 1 µM, first compound 0.00949 µM
[40] = second compound 1 µM, first compound 0.03 µM
[41] = second compound 1 µM, first compound 0.0949 µM
[42] = second compound 1 µM, first compound 0.3 µM
[43] = second compound 3.16 µM, first compound 0.00949 µM
[44] = second compound 3.16 µM, first compound 0.03 µM
[45] = second compound 3.16 µM, first compound 0.0949 µM
[46] = second compound 3.16 µM, first compound 0.3 µM
[47] = second compound 10 µM, first compound 0.00949 µM
[48] = second compound 10 µM, first compound 0.03 µM
[49] = second compound 10 µM, first compound 0.0949 µM
[50] = second compound 10 µM, first compound 0.3 µM
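Also: spheroids exposed to compounds for seven days before the viability read.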
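For viability, T/C in this document: luminescent signal used as a stand-in for viable cell amount; 100% = DMSO vehicle control wells.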

CC1(C)CCC(CN2CCN(c3ccc(C(=O)NS(=O)(=O)c4ccc(NCC5CCOCC5)c([N+](=O)[O-])c4)c(Oc4cnc5[nH]ccc5c4)c3)CC2)=C(c2ccc(Cl)cc2)C1 + CC(CO)NC(=O)c1cc(-c2ccc(Cl)cc2)nn(-c2cnn(C)c2)c1=O
5940 nM: IC50 (second compound 0.316 µM)
4820 nM: IC50 (second compound 10 µM)
5420 nM: IC50 (second compound 0.1 µM)
active: viability, T/C [30] 9.34%
inactive: viability, T/C [1] 99.3% | viability, T/C [2] 113% | viability, T/C [3] 102% | viability, T/C [4] 101% | viability, T/C [5] 84.8% | viability, T/C [6] 10.5% | viability, T/C [7] 108% | viability, T/C [8] 94.8% | viability, T/C [9] 96.7% | viability, T/C [10] 94.2% | viability, T/C [11] 96.2% | viability, T/C [12] 11.8% | viability, T/C [13] 112% | viability, T/C [14] 98.4% | viability, T/C [15] 109% | viability, T/C [16] 95.8% | viability, T/C [17] 92.1% | viability, T/C [18] 10.1% | viability, T/C [19] 95.2% | viability, T/C [20] 85.8% | viability, T/C [21] 83.1% | viability, T/C [22] 94.2% | viability, T/C [23] 88.1% | viability, T/C [24] 10.2% | viability, T/C [25] 77.5% | viability, T/C [26] 96.7% | viability, T/C [27] 83.9% | viability, T/C [28] 78.7% | viability, T/C [29] 74.4%
5710 nM: IC50 (second compound 1 µM)
5560 nM: IC50 (second compound 3.16 µM)

CC1COCCN1c1cc(C2(S(C)(=N)=O)CC2)nc(-c2ccnc3[nH]ccc23)n1 (stereo not given) + CC(CO)NC(=O)c1cc(-c2ccc(Cl)cc2)nn(-c2cnn(C)c2)c1=O
inactive: viability, T/C [1] 99.5% | viability, T/C [2] 97.3% | viability, T/C [3] 86% | viability, T/C [4] 47% | viability, T/C [7] 97.9% | viability, T/C [8] 101% | viability, T/C [9] 87.3% | viability, T/C [10] 47.1% | viability, T/C [13] 109% | viability, T/C [14] 92.8% | viability, T/C [15] 89.8% | viability, T/C [16] 41.1% | viability, T/C [19] 91.1% | viability, T/C [20] 90.9% | viability, T/C [21] 76.9% | viability, T/C [22] 41% | viability, T/C [25] 76.3% | viability, T/C [26] 75.9% | viability, T/C [27] 71.8% | viability, T/C [28] 33.7%
734 nM: IC50 (second compound 3.16 µM)
611 nM: IC50 (second compound 10 µM)
active: viability, T/C [5] 5.74% | viability, T/C [6] 3.37% | viability, T/C [11] 6.52% | viability, T/C [12] 3.04% | viability, T/C [17] 5.47% | viability, T/C [18] 2.94% | viability, T/C [23] 5.43% | viability, T/C [24] 2.86% | viability, T/C [29] 6.79% | viability, T/C [30] 3.4%
885 nM: IC50 (second compound 0.1 µM)
801 nM: IC50 (second compound 1 µM)
899 nM: IC50 (second compound 0.316 µM)

CCN(c1cc(-c2ccc(CN3CCOCC3)cc2)cc(C(=O)NCc2c(C)cc(C)[nH]c2=O)c1C)C1CCOCC1 + CC(CO)NC(=O)c1cc(-c2ccc(Cl)cc2)nn(-c2cnn(C)c2)c1=O
inactive: viability, T/C [31] 97.8% | viability, T/C [32] 106% | viability, T/C [33] 82.9% | viability, T/C [34] 94.5% | viability, T/C (second compound 0.1 µM, first compound 0.949 µM) 102% | viability, T/C (second compound 0.1 µM, first compound 3 µM) 85.1% | viability, T/C [35] 109% | viability, T/C [36] 95.8% | viability, T/C [37] 89.8% | viability, T/C [38] 93.3% | viability, T/C (second compound 0.316 µM, first compound 0.949 µM) 90.3% | viability, T/C (second compound 0.316 µM, first compound 3 µM) 91.9% | viability, T/C [39] 83.5% | viability, T/C [40] 90.5% | viability, T/C [41] 88.2% | viability, T/C [42] 87.8% | viability, T/C (second compound 1 µM, first compound 0.949 µM) 82.2% | viability, T/C (second compound 1 µM, first compound 3 µM) 101% | viability, T/C [43] 96.5% | viability, T/C [44] 101% | viability, T/C [45] 89.4% | viability, T/C [46] 80.7% | viability, T/C (second compound 3.16 µM, first compound 0.949 µM) 92.3% | viability, T/C (second compound 3.16 µM, first compound 3 µM) 85.8% | viability, T/C [47] 88.5% | viability, T/C [48] 69.8% | viability, T/C [49] 80.5% | viability, T/C [50] 87.4% | viability, T/C (second compound 10 µM, first compound 0.949 µM) 73.5% | viability, T/C (second compound 10 µM, first compound 3 µM) 82.6%
> 3000 nM: IC50 (second compound 0.1 µM) | IC50 (second compound 0.316 µM) | IC50 (second compound 1 µM) | IC50 (second compound 3.16 µM) | IC50 (second compound 10 µM)

Nc1ncn(C2CC(O)C(CO)S2)c(=O)n1 (stereo not given) + CC(CO)NC(=O)c1cc(-c2ccc(Cl)cc2)nn(-c2cnn(C)c2)c1=O
118 nM: IC50 (second compound 0.316 µM) | IC50 (second compound 10 µM)
139 nM: IC50 (second compound 0.1 µM)
142 nM: IC50 (second compound 3.16 µM)
132 nM: IC50 (second compound 1 µM)
inactive: viability, T/C (second compound 0.1 µM, first compound 0.000949 µM) 101% | viability, T/C (second compound 0.1 µM, first compound 0.003 µM) 94.8% | viability, T/C [31] 93% | viability, T/C [32] 85.6% | viability, T/C [33] 59.6% | viability, T/C [34] 29.9% | viability, T/C (second compound 0.316 µM, first compound 0.000949 µM) 83.6% | viability, T/C (second compound 0.316 µM, first compound 0.003 µM) 92.8% | viability, T/C [35] 92.8% | viability, T/C [36] 93.1% | viability, T/C [37] 55% | viability, T/C [38] 29.1% | viability, T/C (second compound 1 µM, first compound 0.000949 µM) 102% | viability, T/C (second compound 1 µM, first compound 0.003 µM) 100% | viability, T/C [39] 99.4% | viability, T/C [40] 94.2% | viability, T/C [41] 56.7% | viability, T/C [42] 33.1% | viability, T/C (second compound 3.16 µM, first compound 0.000949 µM) 82% | viability, T/C (second compound 3.16 µM, first compound 0.003 µM) 93% | viability, T/C [43] 92% | viability, T/C [44] 85% | viability, T/C [45] 59.8% | viability, T/C [46] 32% | viability, T/C (second compound 10 µM, first compound 0.000949 µM) 89.1% | viability, T/C (second compound 10 µM, first compound 0.003 µM) 75.1% | viability, T/C [47] 89.1% | viability, T/C [48] 66.8% | viability, T/C [49] 55.1% | viability, T/C [50] 34.2%
